Experimental findings from patent publication US20250186410A1, “DUAL INHIBITORS OF TRYPTOPHAN DIOXYGENASES (IDO1 AND TDO) AND THEIR USE IN THERAPY” (ANTIDO THERAPEUTICS INTERNATIONAL SÀRL, priority 2022, published 2025) are described below.

What is called IC50 is the concentration that gives 50% inhibition. What is called viability is the share of living cells, or the viability signal relative to a control. High values mean less harm to the cells, low ones more harm to the cells.

For series [1], the target named is Recombinant human IDO1 (rhIDO1) (Homo sapiens (Human), UniProt P14902). The series can be described thus: Enzymatic assay for IDO1 activity. It is filed as biochemical. The conditions noted are these: read-out: Isolated IDO1 Enayme Assay IC50. On the procedure: Recombinant human IDO1 (rhIDO1) was expressed and purified from cultures of EC538 strain of E. coli transformed with pREP4 and pQE9-IDO plasmid. Reaction mixes were set up in 384-well microplates containing 50 mM phosphate buffer, 10 mM ascorbic, 10 μM methylene blue, 100 μg/mL catalase, 80 μM TRP, 0.01% Tween 20 (v/v) mixed with rhIDO1 (15 μL) at a final concentration of 9 nM in a total volume of 30 μL assay medium. The plates were incubated at 37° C. for 30 min, and the enzymatic reaction was terminated by adding piperidine (200 mM) and heated at 65° C. for 20 min. Fluorescence intensity was read at λex 400 nm and λem 500 nm. Test compounds were dissolved in 100% DMSO and pre-diluted in assay medium prior to adding rhIDO1. IDO1 inhibition (%) was calculated as
All experiments were carried out in triplicates, and statistical Analyses were conducted in Prism v5 (Graphpad Software, Inc., La Jolla, CA, USA).

A short description of series [2]: MTT cell viability in the cellular IDO1/TDO experiments. It is filed as cell-based. Particulars: mouse, read-out: Cytotoxicity IC50. On the procedure: The viability of the cells in each well in the same experiment was determined using the 3-(4,5-dimethylthiazolyl-2-yl)-2,5-diphenyltetrazolium bromide (MTT) colourimetric assay. After the removal of the supernatant for determination of IDO1 inhibition, the cells were incubated with MTT (500 μg/mL) until crystal formation was observed. Plates were centrifuged for 15 min at 2500 g, and then all the supernatant in then wells was discarded. DMSO (100 μL/well) was added to dissolve the crystals and then the absorbance in each well was measured at 570 nm. Cell viability in each well was expressed as a percentage of untreated controls. Triplicate cultures were used for all experiments unless stated otherwise.
The viability of the cells in each well in the same experiment was determined using the 3-(4,5-dimethylthiazolyl-2-yl)-2,5-diphenyltetrazolium bromide (MTT) colourimetric assay.

The test system of series [3] is lung cancer cell line B (cisplatin-sensitive). The series can be described thus: Growth inhibition and cytotoxicity assay (trypan blue), B cells. It is filed as cell-based. Particulars: Homo sapiens. As for the experimental part: (§1) In this study 3 different human-derived lung cancer cell lines were exposed to vehicle control (parental cells B, S and A) or long-term incubation with cisplatin (BC, SC and ALC cells). Long-term incubation with cisplatin induced cisplatin-resistance in the BC, SC and ALC cell lines.
(§2) Cells were seeded in 24-well dishes and treated with various concentrations of inhibitors (i.e. Epacadostat or AT-0174). Briefly, the culture media as well as the trypsinized cells were collected and this mixture was centrifuged at 400×g for 5 min. The supernatant was discarded, re-suspended in 1 mL of Hank's buffer, and assayed for live cells and death cells using trypan blue exclusion method.
(§3) Data from in vitro experiments were performed from three separate biological replicates which were isolated and analyzed in technical triplicates. Separate measurements using the two-tailed t-test and the results were expressed as mean±standard deviation.

The test system of series [4] is lung cancer cell line S (cisplatin-sensitive). Nature of the series: Growth inhibition and cytotoxicity assay (trypan blue), S cells. In kind it is cell-based. The conditions noted are these: Homo sapiens. As for the experimental part:
as §1, §2, §3

For series [5], the system named is lung cancer cell line A (cisplatin-sensitive). Nature of the series: Growth inhibition and cytotoxicity assay (trypan blue), A cells. In kind it is cell-based. The conditions noted are these: Homo sapiens. As for the experimental part:
as §1, §2, §3

For series [6], the system named is lung cancer cell line SC (cisplatin-resistant). The series can be described thus: Growth inhibition and cytotoxicity assay (trypan blue), SC cells. It is filed as cell-based. The conditions noted are these: Homo sapiens. As for the experimental part:
as §1, §2, §3

The subject of series [7] is immune cells in LLC tumors. The series can be described thus: Flow cytometry immune cell analysis, LLC tumors. It is filed as in vivo, mouse. Particulars: AT-0174 170 mg/kg, epacadostat 200 mg/kg P.O. daily. On the procedure: (§4) LLC or LLC-CR (1×10^6) cells were subcutaneously injected into the flank of C57B6/J male and female mice (5 mice per group, age 6-8 weeks, Jackson laboratory) and allowed to grow for 3 days (average tumor size=50 mm^3) before being treated with the selective IDO1 inhibitor epacadostat at 200 mg/kg daily or with AT-0174 at 170 mg/kg daily (a dual inhibitor of IDO1 and TDO enzymes). Both compounds were administered via oral gavage (P.O.) and diluted with 95% water+5% methylcellulose (0.5%) and stored at −20° C. Compound was prepared every 5 days. Methyl cellulose (95+5%) was used as control (“Veh”). Tumor growth was evaluated every 2 days by measuring tumor volume with calipers according to the following formula: tumor volume=width^2×length×0.5. At the end of the study, mice were sacrificed and the blood, tumor, and lymph nodes were collected and processed for KYN and tryptophan (TRP) measurement and immune cell assessment respectively.
(§5) Tumors or lymph nodes were collected from mice and homogenized using syringe plungers. Mesh filters (40 μM) were placed on 15 mL or 50 mL tubes and the tissue suspensions were filtered. Cell filtrates were spun down at 1000 g. Red blood cell lysis buffer (1% […]) was added into the cell pellets and resuspended. Cell pellets were washed using PBS and isolated. Tumors were isolated using EasySep™ Mouse TIL (CD45) Positive Selection Kit (Stemcell Technologies). To detect regulatory T cells (T-regs) or natural killer cells (NKs), EasySep™ Mouse CD25 Regulatory T Cell Positive Selection Kit and EasySep™ Mouse CD49b Positive Selection Kit were used, respectively. Isolated cells were stained according to manufacturer's instructions. Cells were also fixed with 2% paraformaldehyde and analysis was done using the CytoFLEX Flow Cytometer (Beckman). All flow antibodies were obtained from Biolegend.
On the technique in general: Flow cytometry measures light scatter and fluorescence of single cells or particles in a stream.

The subject of series [8] is immune cells in LLC-CR tumors. Nature of the series: Flow cytometry immune cell analysis, LLC-CR tumors. It is filed as in vivo, mouse. The conditions noted are these: AT-0174 170 mg/kg, epacadostat 200 mg/kg P.O. daily. On the procedure: as §4, §5
Series [9] deals with kynurenine (KYN) and tryptophan (TRP) levels in mouse serum. Nature of the series: KYN and TRP measurements, LLC-CR-bearing mice. In kind it is in vivo. The conditions noted are these: AT-0174 170 mg/kg, epacadostat 200 mg/kg P.O. daily. As for the experimental part:
as §4
Blood samples were collected via cardiac puncture from mice at the time of sacrifice and the Biochrom 30 amino acid analyzer (using ion exchange chromatography) was used to analyze free amino acids in samples. Briefly, 200 μL of serum extract and equal volume of 30% v/v deproteinization agent (sulfosalicylic acid) were mixed and vortexed for 10 s. Samples were then incubated at 55° C. for 20 min, spin down at 2500 g for 20 min at 4° C. Supernatant were collected, filtered through a 0.22 μm filter, and injected into the Biochrom 30. Values were reported compared to normal ranges in controls. Samples used in ion exchange chromatography are separated in an analytical fashion with an ion exchange column and buffers of increasing pH and ionic strength. After post-column derivatization with Ninhydrin, and colorimetric intensity recordings at 570 nm and 440 nm, the amino acids separated by chromatography were detected. Amino acid concentration was calculated by comparing the peak area of a particular amino acid to the peak area of an internal standard-AEC of known concentration, and then multiplying by its specific response factor from calibration.

Molecules are shown by their SMILES.

Sequence of Recombinant human IDO1 (rhIDO1) (P14902 whole entry): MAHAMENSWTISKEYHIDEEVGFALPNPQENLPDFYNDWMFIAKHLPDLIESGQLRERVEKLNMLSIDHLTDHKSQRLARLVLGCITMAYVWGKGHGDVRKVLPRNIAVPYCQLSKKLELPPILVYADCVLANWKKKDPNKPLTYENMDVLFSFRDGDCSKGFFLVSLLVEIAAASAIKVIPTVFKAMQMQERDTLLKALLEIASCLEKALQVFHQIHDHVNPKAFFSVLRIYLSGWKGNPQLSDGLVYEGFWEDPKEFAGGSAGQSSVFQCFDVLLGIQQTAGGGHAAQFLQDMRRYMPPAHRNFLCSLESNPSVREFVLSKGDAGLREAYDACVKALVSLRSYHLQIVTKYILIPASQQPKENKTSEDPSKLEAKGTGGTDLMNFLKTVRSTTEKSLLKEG

For the compound `Nc1noc2nc(Cl)c(F)cc12` [Compound 66, 6-Chloro-5-fluoroisoxazolo[5,4-b]pyridin-3-amine], the IC50 in [1] is under 1 µM. Besides, the IC50 at 24 h in [2] was over 100 µM. Moreover, the viability at 12.5 µM stood at 84.8 ± 11.3% in series [3] (12.5 μM AT-0174), 78 ± 7.1% in [4] (12.5 μM AT-0174), 92.8 ± 8.5% in [5] (12.5 μM AT-0174) and 65.7 ± 6.4% in series [6] (12.5 μM AT-0174). Also, the viability at 25 µM in [3] (25.0 μM AT-0174) came out at 97.9 ± 2.1%; in series [4] (25.0 μM AT-0174), 96.8 ± 19.1%; in series [5] (25.0 μM AT-0174) it was 75.1 ± 14.1%; in [6] (25.0 μM AT-0174) it was 68.1 ± 2.1%. The viability at 50 µM in series [3] (50.0 μM AT-0174) came out at 92.2 ± 15.6%; in [4] (50.0 μM AT-0174), 70.2 ± 14%; in [5] (50.0 μM AT-0174), 74.4 ± 7.1%; in series [6] (50.0 μM AT-0174), 70 ± 2.1%. Moreover, the “CD3^+ CD8^+ T-Effector” value in series [7] was 5.38 ± 0.79; in [8] it was 8.13 ± 0.94. The “CD3^+ CD49^+ NKG2D^+ NK Cells” value is on record as 3.58 ± 0.70 in series [7] and 7.44 ± 0.62 in [8]. In addition, the “CD4^+ CD25^+ FoxP3^+ T-regs” value in series [7] worked out at 10.05 ± 0.79; in series [8], 5.75 ± 1.53. The “KYN/TRP Ratio” value in [9] came to 1.18 ± 0.31. The compound further had a Kynurenine in [9] of 50 ± 9.7. In series [9], this compound came in with a Tyrptophan of 85.8 ± 8.3.

As for `NS(=O)(=O)NCCNc1nonc1C(=NO)Nc1ccc(F)c(Br)c1` [Epacadostat, epacadostat, reference compound], in series [7], the “CD3^+ CD8^+ T-Effector” value was 5.16 ± 0.65, the “CD3^+ CD49^+ NKG2D^+ NK Cells” value is given as 2.66 ± 0.57 and the “CD4^+ CD25^+ FoxP3^+ T-regs” value was determined as 13.27 ± 0.83. In series [8], the “CD3^+ CD8^+ T-Effector” value stood at 4.06 ± 0.63, the “CD3^+ CD49^+ NKG2D^+ NK Cells” value is listed as 2.38 ± 0.42 and the “CD4^+ CD25^+ FoxP3^+ T-regs” value was 12.60 ± 0.94. Further, in series [9], the “KYN/TRP Ratio” value worked out at 2.01 ± 0.32, the Kynurenine worked out at 81.8 ± 11.9 and the Tyrptophan came to 43 ± 5.8.
